In test [1] the target is T1, PKC-ι (Homo sapiens, UniProt P41743).
T1 sequence (P41743 1-596): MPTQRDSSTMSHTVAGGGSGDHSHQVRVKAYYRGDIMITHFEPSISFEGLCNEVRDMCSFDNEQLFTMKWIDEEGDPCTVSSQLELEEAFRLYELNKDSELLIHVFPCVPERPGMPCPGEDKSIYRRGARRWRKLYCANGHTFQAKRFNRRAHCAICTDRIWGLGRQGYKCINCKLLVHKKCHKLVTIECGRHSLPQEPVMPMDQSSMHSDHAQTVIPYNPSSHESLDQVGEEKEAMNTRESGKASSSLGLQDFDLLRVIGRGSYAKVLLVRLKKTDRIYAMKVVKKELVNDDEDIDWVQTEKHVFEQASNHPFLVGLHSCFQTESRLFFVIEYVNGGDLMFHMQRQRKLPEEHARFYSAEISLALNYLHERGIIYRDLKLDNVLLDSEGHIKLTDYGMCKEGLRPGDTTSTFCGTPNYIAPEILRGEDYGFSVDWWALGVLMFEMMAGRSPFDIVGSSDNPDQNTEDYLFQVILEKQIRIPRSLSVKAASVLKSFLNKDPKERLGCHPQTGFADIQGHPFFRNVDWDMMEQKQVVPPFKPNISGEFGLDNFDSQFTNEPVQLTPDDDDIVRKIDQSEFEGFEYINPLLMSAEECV
The settings on record: cited from earlier work.

In a further test the target is PKC-δ (Homo sapiens, UniProt Q05655). The settings on record: cited from earlier work.
PKC-δ, sequence (Q05655 whole entry): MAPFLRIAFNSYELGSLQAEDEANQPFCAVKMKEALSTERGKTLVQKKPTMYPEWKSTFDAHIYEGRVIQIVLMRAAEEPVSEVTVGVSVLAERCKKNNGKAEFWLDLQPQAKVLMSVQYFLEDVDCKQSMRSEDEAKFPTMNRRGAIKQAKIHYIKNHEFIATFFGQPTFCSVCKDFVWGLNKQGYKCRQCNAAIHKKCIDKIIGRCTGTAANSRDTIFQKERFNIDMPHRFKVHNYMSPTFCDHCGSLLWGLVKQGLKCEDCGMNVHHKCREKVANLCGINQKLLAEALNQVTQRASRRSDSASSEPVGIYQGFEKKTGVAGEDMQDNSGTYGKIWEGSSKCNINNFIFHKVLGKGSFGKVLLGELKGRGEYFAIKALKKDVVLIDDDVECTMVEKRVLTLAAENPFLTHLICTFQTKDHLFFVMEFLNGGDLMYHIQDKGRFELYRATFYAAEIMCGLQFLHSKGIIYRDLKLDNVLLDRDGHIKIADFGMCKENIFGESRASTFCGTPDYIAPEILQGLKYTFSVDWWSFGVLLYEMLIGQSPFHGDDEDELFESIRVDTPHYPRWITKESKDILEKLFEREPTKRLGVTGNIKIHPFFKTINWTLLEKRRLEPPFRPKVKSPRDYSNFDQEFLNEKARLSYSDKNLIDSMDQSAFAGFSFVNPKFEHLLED
Another test addresses T2, PKC-ε (Homo sapiens, UniProt Q02156).
T2 sequence (Q02156 1-737): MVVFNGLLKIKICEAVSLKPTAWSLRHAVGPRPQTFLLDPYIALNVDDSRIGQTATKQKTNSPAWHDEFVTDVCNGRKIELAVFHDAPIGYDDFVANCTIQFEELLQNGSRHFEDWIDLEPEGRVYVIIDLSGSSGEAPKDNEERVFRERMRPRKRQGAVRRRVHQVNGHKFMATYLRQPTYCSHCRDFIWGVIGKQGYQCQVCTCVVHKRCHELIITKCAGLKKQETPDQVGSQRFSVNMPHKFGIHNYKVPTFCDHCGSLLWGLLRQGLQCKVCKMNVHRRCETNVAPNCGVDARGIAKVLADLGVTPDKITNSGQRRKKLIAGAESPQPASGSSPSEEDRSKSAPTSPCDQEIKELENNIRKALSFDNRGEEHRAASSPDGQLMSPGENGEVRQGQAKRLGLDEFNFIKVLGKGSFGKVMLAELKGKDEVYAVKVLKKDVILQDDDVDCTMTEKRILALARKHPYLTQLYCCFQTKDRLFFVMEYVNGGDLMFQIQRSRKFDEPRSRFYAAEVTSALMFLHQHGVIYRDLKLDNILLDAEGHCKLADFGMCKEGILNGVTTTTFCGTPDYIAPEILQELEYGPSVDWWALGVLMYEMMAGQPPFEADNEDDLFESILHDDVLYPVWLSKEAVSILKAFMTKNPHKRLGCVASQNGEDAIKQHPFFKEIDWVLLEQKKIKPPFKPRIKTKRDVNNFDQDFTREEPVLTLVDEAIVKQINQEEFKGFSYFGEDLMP
The settings on record: cited from earlier work.

Test [2] concerns the target T1, PKC-ι. The settings on record: cited from earlier work. This is another data set of the same source.
In the next test the target is PKC-β (Homo sapiens, UniProt P05771). The note with it: cited from earlier work.
PKC-β, sequence (P05771 whole entry, species assumed): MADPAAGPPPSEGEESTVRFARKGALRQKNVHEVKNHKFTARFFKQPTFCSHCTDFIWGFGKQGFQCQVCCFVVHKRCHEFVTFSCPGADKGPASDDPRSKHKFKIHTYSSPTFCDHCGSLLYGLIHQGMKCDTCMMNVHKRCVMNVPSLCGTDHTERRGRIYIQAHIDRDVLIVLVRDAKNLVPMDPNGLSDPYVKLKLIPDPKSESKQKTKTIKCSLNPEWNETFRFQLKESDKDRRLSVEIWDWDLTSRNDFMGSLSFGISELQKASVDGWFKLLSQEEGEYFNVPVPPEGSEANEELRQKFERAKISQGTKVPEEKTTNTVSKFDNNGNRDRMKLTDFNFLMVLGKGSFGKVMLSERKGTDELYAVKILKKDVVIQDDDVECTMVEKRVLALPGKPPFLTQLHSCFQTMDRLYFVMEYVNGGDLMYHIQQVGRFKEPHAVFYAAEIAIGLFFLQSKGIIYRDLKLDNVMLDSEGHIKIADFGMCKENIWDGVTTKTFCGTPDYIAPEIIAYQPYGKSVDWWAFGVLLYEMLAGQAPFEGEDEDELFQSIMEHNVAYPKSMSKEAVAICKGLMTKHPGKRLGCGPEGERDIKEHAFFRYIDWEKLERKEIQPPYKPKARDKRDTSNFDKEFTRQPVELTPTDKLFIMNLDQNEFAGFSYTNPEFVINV
In a further test the target is T3, PKC-ζ (Homo sapiens, UniProt Q05513).
T3 sequence (Q05513 1-592): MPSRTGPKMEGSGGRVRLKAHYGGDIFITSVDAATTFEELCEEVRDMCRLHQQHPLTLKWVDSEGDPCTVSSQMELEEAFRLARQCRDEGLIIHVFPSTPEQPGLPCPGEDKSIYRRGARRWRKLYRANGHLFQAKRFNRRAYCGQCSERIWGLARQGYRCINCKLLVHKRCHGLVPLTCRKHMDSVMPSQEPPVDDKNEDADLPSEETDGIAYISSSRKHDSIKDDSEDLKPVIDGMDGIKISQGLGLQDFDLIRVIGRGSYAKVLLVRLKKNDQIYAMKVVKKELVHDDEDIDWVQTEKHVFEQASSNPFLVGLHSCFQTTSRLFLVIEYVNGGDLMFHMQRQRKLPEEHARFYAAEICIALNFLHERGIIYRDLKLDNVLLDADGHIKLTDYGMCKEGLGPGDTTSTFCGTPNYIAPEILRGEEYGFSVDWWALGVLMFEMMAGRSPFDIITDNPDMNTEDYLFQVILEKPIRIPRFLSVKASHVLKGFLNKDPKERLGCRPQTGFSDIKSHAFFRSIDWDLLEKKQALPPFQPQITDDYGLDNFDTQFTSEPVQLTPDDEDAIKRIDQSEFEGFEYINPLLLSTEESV
The note with it: cited from earlier work.

A further test deals with PKC-α (Homo sapiens, UniProt P17252). The settings on record: cited from earlier work.
Test [3] concerns HEY ovarian cancer cells. Put plainly: HEY cell proliferation, Trypan blue exclusion assay. It counts as cell-based, human. The method, then: HEY human ovarian carcinoma cells were obtained from Dr. Meera Nanjundan's laboratory at the University of South Florida. The cells were grown as a monolayer in a T25 tissue culture flask with 5 mL of growth medium and maintained in a 37° C. incubator with 5% CO2. The RPMI1640 growth medium was obtained from and American Type Culture Collection (ATCC) and Life Technologies (Carlsbad, Calif.). The medium was supplemented with 10% fetal bovine serum (FBS) and a mix of the antibiotics Penicillin (10,000 IU) and Streptomycin (10,000 μg/ml) in a 100× concentration which was purchased from Corning.
HEY cells were cultured in a T25 cell culture flask. 13,000 cells were seeded into each well in a 6-well culture plate. ACPD was weighed and dissolved in water to create a 100 mM stock solution. From this solution, serial dilutions were done to create a 1 mM stock solution which was then used for treatment. In order to assess the effect of ACPD on cell viability, three wells were treated with 2 μM ACPD while the other three wells were left untreated as controls. The treatment period was 72 hours with the growth medium being changed every 24 hours. The cells were also washed with DPBS every time the growth medium was changed. Cell viability was determined at 24, 48 and 72 hours using a Trypan blue exclusion assay where 30 μL of the cell suspension was added to 30 μL of Trypan blue. The number of unstained cells was counted using a hematocytometer. The same procedures were used for ICA-1.
The experiments were performed as per the protocol described by Patel et al. (2008), herein incorporated by reference. Briefly, cells were cultured in T75 flasks in monolayers. For treatment, 40,000 cells were seeded into T75 flasks and treated for 72 hours with ICA-1 and ACPD. The proliferation was measured each day by a Trypan Blue exclusion assay which involved staining the cells with Trypan Blue and counting them under a microscope using a hemocytometer.

For test [4], the system named is HEY ovarian cancer cells. Put plainly: Total RNA concentration of HEY cells (Rneasy Mini Kit, NanoDrop1000). The format is cell-based, human. The note with it: for reduction of total RNA: 2 μM. From the text:
RNA was isolated from the treated and untreated cells using the Rneasy Mini Kit and protocol. The total RNA concentration was estimated using the NanoDrop1000 spectrophotometer.

Here are results for three compounds from patent US9301965B2, “Method of treating ovarian cancer using a PKC inhibitor” (University of South Florida, priority 2014, dated 2016).

Where “and” joins values, the source holds several entries; their conditions need not be identical. Identical values can stand only once.

In the case of `O=C([O-])CC([S][Au])C(=O)[O-]` (centres unmarked) [Sodium aurothiomalate], the “binding to PKC-ι” value at PKC-ι [1] is “low micromolar range”.
For `OC[C@H]1O[C@H]([S][Au])[C@H](O)[C@@H](O)[C@@H]1O` [aurothioglucose], on PKC-ι [1], the “binding to PKC-ι” value was “low micromolar range”.
Consider `CC(=O)C1=C(O)CCC1=O` [ACPD, 2-acetyl-1,3-cyclopentanedione], for which the “inhibition of PKC-δ” value on PKC-δ is “not PKC-α, PKC-β, PKC-δ, or PKC-ε”. For the same compound, the “inhibition of PKC-ε” value on PKC-ε was “not PKC-α, PKC-β, PKC-δ, or PKC-ε”. For the same compound, the “inhibition of PKC-ι” value at PKC-ι [2] is “inhibits both PKC-ζ and PKC-ι”. Besides, the “inhibition of PKC-β” value at PKC-β is “not PKC-α, PKC-β, PKC-δ, or PKC-ε”. In addition, the “inhibition of PKC-ζ” value at PKC-ζ was “inhibits both PKC-ζ and PKC-ι”. Further, the “inhibition of PKC-α” value on PKC-α was “not PKC-α, PKC-β, PKC-δ, or PKC-ε”. The “reduction of cell proliferation” value with HEY ovarian cancer cells [3] (800 nM, 72 hour treatment) is 16%; with HEY ovarian cancer cells [3] (1.8 μM, 72 hour treatment), 28%; in the test with HEY ovarian cancer cells [3] (2 μM, 24 hours, compared to controls), 82% and 81.75%; in the test with HEY ovarian cancer cells [3] (2 μM, 48 hours), 60.5% and 60%. The “effectiveness in inhibiting cell proliferation relative to ICA-1” value with HEY ovarian cancer cells [3] (HEY ovarian cancer cells) was “over five times more effective than ICA-1”. Besides, the “reduction of total RNA concentration” value in the test with HEY ovarian cancer cells [4] (1.8 μM, 72 hour treatment) is listed as 38%. The “reduction of total RNA” value was 97% and 97.4% with HEY ovarian cancer cells [4] (24 hours); 52.4% and 52% with HEY ovarian cancer cells [4] (48 hours); 34.3% and 34% with HEY ovarian cancer cells [4] (72 hours).
